# Reference: patent US20220142967A1, “Methods and Compositions for the Treatment of Multiple Sclerosis” (SYMBIONYX PHARMACEUTICALS INC, priority 2018, published 2022)
# Where a name gives a salt, the structure may show the parent alone.
# What was measured:
# Type in all cases: cell-based
# [1] = system: human fetal astrocytes derived from cerebral cortex; assay: Comparative RT-PCR evaluation of selected genes in astrocytes
# Experimental: (§1) Experiments were performed using human fetal astrocytes derived from cerebral cortex (cat. no. 882A-05f; Cell Applications, Sant Diego, Calif.). Cells were grown to subconfluence in human astrocyte growth medium (cat. no. 820-500, Cell Applications). […] Test materials were added to subconfluent cultures at a concentration of 2.5 μM and cells were incubated for 24 hours.
# (§2) RNA was extracted following the incubation period using the RNAeasy Mini Plus kit (Qiagen, Hilden, Germany) and robotic Qiacube Connect station (Qiagen). Samples were shipped on dry ice to the Thermo Fisher Microarray Research Services Laboratory (Santa Clara, Calif.) for transcriptome analysis. RNA quality analysis was performed upon sample receipt using the NanoDrop Lite (Thermo Fisher Scientific, Waltham, Mass.). All samples had 260/280 nm absorbance ratios higher than 1.90, consistent with high-purity RNA.
# The expression of selected genes was further evaluated using RT-PCR. cDNA was prepared using the AzuraQuant cDNA kit (Azura Genomics, Raynham, Mass.) and PCR reactions were performed using the BioRad iCycler iQ Detection System with Fast Green qPCR Master Mix—Fluor (Azura Genomics). PCR primers were purchased from Realtimeprimers (Elkins Park, Pa.). The ΔΔCt method [Livak K. J. and Schmittgen T. D. Analysis of relative gene expression data using real-time quantitative PCR and the 2(−Delta Delta C(T)) Method. Methods (San Diego, Calif.) 25(4):402-408, 2001]. was used to estimate fold changes with cycle threshold values normalized based upon the expression of glyceraldehyde-3-phosphate dehydrogenase (GAPDH).
# [2] = system: cultured human keratinocytes (KCs); assay: Microarray genome-wide expression, IDMF vs. CTL, MS-associated genes
# Experimental: RNA sample processing and microarray hybridizations were performed using the Affymetrix Human Genome U133 Plus 2.0 array platform. DNA microarray samples evaluated included IDMF- and vehicle-treated KCs (n=2 replicates per group). Samples were normalized using the robust multichip average (RMA) algorithm. Identification of probe sets with detectable expression was performed using the MAS 5.0 method, which identifies probe sets with above-background expression based upon the Wilcoxon signed rank test. To limit redundancy in downstream analyses, a single probe set was chosen to represent each protein-coding human gene featured on the microarray platform. This representative was chosen as the probe set with highest expression for each protein-coding human gene. These probe sets were then additionally filtered to include only those with detectable expression in at least 1 of the 4 samples (P<0.05, Wilcoxon signed rank test). Overall, this yielded a total of 12330 protein-coding genes that were included in analyses, with each gene represented by a single representative probe set. Bayesian linear models and moderated t-statistics were then used to evaluate differential expression for each of the 12330 genes (IDMF vs. CTL treatment; R package: limma). To control the false discovery rate (FDR), raw p-values generated from linear model analyses were adjusted using the Benjamini-Hochberg method.
# Genes associated with multiple sclerosis were identified based upon four established database sources: (1) the NHGRI-EBI genome-wide association (GWA) study catalogue, (2) the Disease Ontology (DO) database, (3) the DisGeNET database, and (4) the Medical Subject Heading (MESH) database. While there is some overlap between the various databases, the variation in identified genes from one database to the other reflects the fact that the science is still developing and has uncertainties. Nevertheless, as discussed below, efforts were undertaken to hone in on genes common to multiple databases. […]
# [3] = system: human fetal astrocytes derived from cerebral cortex; assay: Transcriptome analysis of astrocyte cultures treated with MMF, DRF, IDMF; conditions: 2.5 μM, 24 hours
# Experimental: as §1, §2
# In follow-up to the study of Example, 1 above, genes associated with multiple sclerosis were identified based upon seven established database sources: (1) the NHGRI-EBI genome-wide association (GWA) study catalogue, (2) the Disease Ontology (DO) database, (3) the DisGeNET (curated) database, (4) the DisGeNET (BeFree), (5) MalaCards, (6) the Medical Subject Heading (MESH) database and the KEGG Database. The impact on gene expression of IDMF, MMF and DRF on the key overlapping MS-associated genes was assessed.
# The specific data for four of the key NFR2 target genes associated with antioxidant and anti-inflammatory effects is presented in FIGS. 7(A) thru 7(D).
# Both TNFAIP3 and NFKBIA encode inhibitory proteins that suppress the NF-KB pathway. Specifically, TNFAIP3 encodes a deubiquitinating enzyme previously linked to MS by genetic association studies: a TNFAIP3 protein abundance is increased in white matter and cortical lesion astrocytes from MS patient brains. Similarly, NFKBIA (IκBα) encodes an NF-KB inhibitor for which promoter polymorphisms have been associated with MS and abundance of this protein is prominent in macrophage nuclei of MS plaques undergoing active demyelination. ICAM1 encodes an endothelial adhesion molecule that promotes leucocyte extravasation and is associated with the initiation and progression of inflammation as well as the targeting of inflammation in the central nervous system (CNS). FIGS. 9(A), 9(B) and 9(C) show the specific data for these three genes.
# Genetic variants of IFR has been associated with MS and some MS treatments such as glatiramer acetate block cytokine-stimulated IRF1 up-regulation. An assessment was undertaken to assess the relative impact of fumarate esters, namely MMF, DRF and IDMF on IFR motif enrichment.
# [4] = genes common to at least two of four databases
structure (smiles),measurement,setting,value
"COC(=O)/C=C/C(=O)O[C@H]1CO[C@H]2[C@@H]1OC[C@H]2OC(=O)/C=C/C(=O)OC [IDMF, isosorbide di-(methyl fumarate)]",OSGIN1 expression,[1]; FIG. 11(B),enhancing expression
same,"expression of key MS-associated genes (IL-6, ICAM1, MALT1, TNFAIP3, IRF1, CXCL8)",[1]; FIGS. 11(C) through 11(H),marked suppression
same,average fold-change (IDMF/CTL) of MS-associated genes vs. randomly sampled gene sets,"[2]; 76 MS-associated genes from the Disease Ontology (DO) database, P<0.001",significantly lower
same,MS-associated genes most strongly decreased,[2]; [4],"ICAM1, PLAT, and MMP9"
same,MS-associated genes most strongly increased,[2]; [4],"POPDC3, MMP3, and DDAH1"
same,IRF1 expression,[3],marked downregulation
same,effect on NRF2 target genes compared with MMF and DRF,[3],much more pronounced effect
same,"effect on TNFAIP3, NFKBIA and ICAM1 expression",[3],marked downregulation
same,expression of heme oxygenase-1 (HMOX1),[3],marked increase in expression
